Measurements as given in US9066959B2, “Ficus extracts having angiogenesis inhibiting activity and methods of isolating and using the same” (BOARD OF SUPERVISORS OF LOUISIANA STATE UNIVERSITY AND …, priority 2008, dated 2015).

What was measured:
fragments from a sarcoma = experiment: tumor fragment fibrin clot angiogenesis assay, sarcoma; assay type: cell-based, human; conditions: 1 mM, day 14, control compound
Experimental: (§1) Fibrin clots were prepared in 96-well plates (Corning Inc., Corning, N.Y.). Each well was preloaded with a human thrombin solution (0.05 IU/mL; in 2.0 μL/well), (Sigma Chemical Company, St Louis, Mo.). A pre-coagulation solution was prepared by dissolving fibrinogen (0.3%; Sigma) and ∈-aminocaproic acid (0.5%; Sigma) in serum-free growth medium consisting of medium 199 (Mediatech, Herndon Va.) supplemented with an antibiotic-antifungal solution (Gibco/Invitrogen, Grand Island, N.Y.; 100 Units/mL of sodium penicillin G, 100 μg/mL of streptomycin sulfate, and 25 μg of amphotericin B) and buffered to a pH of 7.6. Tumor specimens were placed in chilled serum-containing growth media (medium 199 with 20% fetal bovine serum [FBS], Gibco/Invitrogen) and kept under refrigeration until they were processed. The specimens were processed within 24 hours of surgical harvesting. Minced tumor fragments approximately 2 mm in diameter and 1 mm thick were prepared and rapidly embedded within the fibrin clots. Each tumor fragment was placed in the center of a thrombin-treated well. […] Percent initiation (% I) is a ratio calculated from the number of wells that developed an angiogenic response divided by the total number of wells prepared (×100). […] On day 14, fragments were examined microscopically and scored for an angiogenic response (angiogenic index=0-16). […]

[1] = test system: fragments from a neuroendocrine lymph node metastasis; experiment: tumor fragment fibrin clot angiogenesis assay, neuroendocrine lymph node metastasis; assay type: cell-based, human; conditions: 1 mM, day 14, control compound
Experimental: as §1

O=C(O)c1cc(O)c(O)c(O)c1 [Gallic Acid]
angiogenic response (angiogenic index 0-16) (fragments from a sarcoma): total inhibition | angiogenic response (angiogenic index 0-16) [1]: total inhibition
